Assay results as given in PubChem BioAssay AID2060331 (Molecular Pharmacology Branch, DTP, NCI, 2025).
“And” between values parts separate entries of the source, which are not always exact repeats. Identical values can stand only once.

System: Hs578T multi-cell spheroids, viability
Experiment: Anticancer human tumor Hs578T cell line growth inhibition [IpAb];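 further: drug exposure lasted 7 days before readout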
Details: for viability, T/C: stronger effect = lower value
Excerpt: Combinatorial screen of targeted agents with ipatasertib and abemaciclib in multi-cell type tumor spheroids
A high-throughput screen of multi-cell type tumor spheroids was designed to identify active combinations of targeted small molecules and ipatasertib or abemaciclib. Complex spheroids include a stromal component modeled by human endothelial cells (HUVEC) and fibroblasts modeled by human mesenchymal stem cells (MSCs). The concentration ranges selected for each drug and investigational agent were based upon clinically achievable concentrations if the clinical Cmax of the agent was known.
Compounds. The drugs and investigational agents: ipatasertib (NSC767898), abemaciclib(NSC768073), selumetinib (NSC741078), trametinib (758246), adavosertib (NSC754352), everolimus (NSC733504), sapanisertib (NSC764658), vemurafenib (NSC761431), venetoclax (NSC766270), copanlisib (NSC809693), apelisib (NSC765974), palbociblib (NSC758247), vemurafenib (NSC761431), dabrafenib (NSC764134), ravoxertinib (NSC781343), BMS-387032 (NSC767048), sotorasib (NSC818433), talazoparib (NSC767125) and afursertib (NSC778305), were obtained from the National Cancer Institute (NCI) Developmental Therapeutics Program Chemical Repository. The FDA-approved anticancer drug set is available from the NCI Developmental Therapeutics Program. […] The stock solutions were prepared in dimethyl sulfoxide (DMSO, Sigma-Aldrich, St. Louis, MO, cat. D2650) at 800-fold the tested concentration and stored at -70 degrees C prior to their use. All drugs and investigational agents were tested over a range starting from a high concentration at or near the clinical Cmax and decreasing in half-log increments. If the clinical Cmax for an agent had not been determined, the highest concentration tested was 10 microM.
NCI60 Cell Culture. NCI60 cell lines were obtained from the NCI Developmental Therapeutics Program Tumor Repository. For each lot of cells, the Repository performed Applied Biosystems AmpFLSTR Identifiler testing with PCR amplification to confirm consistency with the published Identifier STR profile for each cell line. Cells were kept in continuous culture for no more than 20 passages. The optimal seeding densities for each of the cell lines at each time point assessed were determined prior to performing the concentration response studies. Briefly, the NCI60 human tumor lines were grown as monolayers in RPMI 1640 medium supplemented with 10% FBS and 2 mmol/L L-glutamine.
An additional 9 lines were from the NCI60 cell line panel including MDA-MB-231 breast carcinoma, MDA-MB-468 breast carcinoma, MCF7 breast carcinoma, Hs578T breast carcinoma, MALME-3M melanoma, SK-MEL-2 melanoma, SK-OV-3 ovarian carcinoma, DU-145 prostate carcinoma, PC-3 prostate carcinoma, all cell lines along with major genetic alterations are listed on Table 2. Pooled donor human umbilical vein endothelial cells (HUVEC, Lonza, cat. CC-2519) and human mesenchymal stem cells (hMSC, Lonza, cat. PT-2501) were purchased from Lonza (Walkersville, MD).
PDMR cell lines were grown in complete medium (DC medium): Dulbecco's modified Eagle's medium (DMEM)/F12 supplemented with 5% fetal bovine serum (FBS), 2 mM L-glutamine, 100 U/mL penicillin and 100 µg/ml streptomycin, 0.4 µg/ml hydrocortisone, 10 ng/ml epidermal growth factor (EGF) recombinant human protein, 24 µg/mL adenine, and 0.1 mg/mL primocin. During culture from frozen stock vials, PDMR cells were cultured in the same medium containing 10 µM Y-27632 (see Table 3). The PDCs were cultured in complete DMEM/F12 media without 10 microM Y-27632 dihydrochloride for at least two passages prior to the screen. The pooled donor HUVEC and hMSC were cultured in endothelial cell growth medium 2 (PromoCell, Heidelberg, Germany, cat. C-22011) and mesenchymal stem cell growth medium 2 (PromoCell, cat. C-28009), respectively. For all experiments, HUVEC and hMSC were used at passages </=5.
[…]

Compound | viability, T/C (compound 0.0316 µM) | viability, T/C (compound 0.1 µM) | viability, T/C (compound 0.316 µM) | viability, T/C (compound 1 µM) | viability, T/C (compound 3.16 µM) | viability, T/C (compound 10 µM) | IC50 (curve of compound) | viability, T/C (compound 0.01 µM) | further results
C=CC(=O)N1CCN(c2nc(=O)n(-c3c(C)ccnc3C(C)C)c3nc(-c4c(O)cccc4F)c(F)cc23)C(C)C1 (configuration not stated) | 103% and 104% | 103% and 109% | 113% and 116% | 108% and 111% | 106% and 95.6% | 73.4% and 68.4% | > 10000 nM | – | –
C=CCn1c(=O)c2cnc(Nc3ccc(N4CCN(C)CC4)cc3)nc2n1-c1cccc(C(C)(C)O)n1 | 98.6% and 100% | 77.7% and 83.3% | 46.2% and 47.5% | 26% and 25.8% | 15.1% and 19.1% | 17.7% and 17.6% | 275 nM and 295 nM | – | –
CC(=O)c1c(C)c2cnc(Nc3ccc(N4CCNCC4)cn3)nc2n(C2CCCC2)c1=O | – | – | – | – | – | – | > 300 nM | – | viability, T/C (compound 0.000949 µM): 105% and 108%; viability, T/C (compound 0.003 µM): 90.8% and 99.7%; viability, T/C (compound 0.00949 µM): 92.8% and 87.4%; viability, T/C (compound 0.03 µM): 82.7% and 87.7%; viability, T/C (compound 0.0949 µM): 73.4% and 73.1%; viability, T/C (compound 0.3 µM): 63.6% and 72.5%
CC(C)(C)c1cnc(CSc2cnc(NC(=O)C3CCNCC3)s2)o1 | – | – | – | – | – | – | 184 nM and 178 nM | – | viability, T/C (compound 0.00949 µM): 102% and 104%; viability, T/C (compound 0.03 µM): 113% and 114%; viability, T/C (compound 0.0949 µM): 122% and 107%; viability, T/C (compound 0.3 µM): 4.21% and 2.95%; viability, T/C (compound 0.949 µM): 2.73% and 3.15%; viability, T/C (compound 3 µM): 2.69% and 3.46%
CC(C)NCC(C(=O)N1CCN(c2ncnc3c2C(C)CC3O)CC1)c1ccc(Cl)cc1 (configuration not stated) | – | 96.2% [middle of 13 runs] | 83.9% [middle of 13 runs] | 66.8% [middle of 13 runs] | 53.8% [middle of 12 runs] | 45% [middle of 13 runs] | – | – | –
CC(C)n1nc(-c2ccc3oc(N)nc3c2)c2c(N)ncnc21 | 20.7% and 20.5% | 15.8% and 14.6% | – | – | – | – | 7.72 nM and 9.02 nM | 43.1% and 49.1% | viability, T/C (compound 0.000316 µM): 95.3% and 94.5%; viability, T/C (compound 0.001 µM): 92.4% and 104%; viability, T/C (compound 0.00316 µM): 74.8% and 76.7%
CC1(C)CCC(CN2CCN(c3ccc(C(=O)NS(=O)(=O)c4ccc(NCC5CCOCC5)c([N+](=O)[O-])c4)c(Oc4cnc5[nH]ccc5c4)c3)CC2)=C(c2ccc(Cl)cc2)C1 | 105% and 104% | 103% and 110% | 99.5% and 102% | 104% | 89.2% and 92.6% | 17% and 19% | 5910 nM and 6160 nM | – | –
CCCS(=O)(=O)Nc1ccc(F)c(C(=O)c2c[nH]c3ncc(-c4ccc(Cl)cc4)cc23)c1F | 95.3% and 98.5% | 101% and 109% | 109% and 105% | 96.1% and 102% | 81.1% and 85.8% | 12.5% and 11.4% | 5310 nM and 5510 nM | – | –
CCN1CCN(Cc2ccc(Nc3ncc(F)c(-c4cc(F)c5nc(C)n(C(C)C)c5c4)n3)nc2)CC1 | 90.4% [middle of 13 runs] | 83.7% [middle of 13 runs] | 83.3% [middle of 13 runs] | 94.2% [middle of 13 runs] | – | – | – | 97.2% [middle of 13 runs] | IC50 (compound alone, run of 06/01/2021): > 1000 nM
COc1c(OCCCN2CCOCC2)ccc2c3n(c(=NC(=O)c4cnc(N)nc4)nc12)CCN3 | 47.2% and 49% | 29.4% | 14.3% and 13.7% | 8.6% and 5.54% | – | – | 26 nM and 31.8 nM | 66.7% and 76.7% | viability, T/C (compound 0.00316 µM): 88.8% and 99.7%
